For data set [1], the system named is elastase-like activity. Put plainly: Gelatin substrate gel electrophoresis of lysates of U-937 cells treated with KCN and elastase inhibitor. It counts as cell-based, Human. Conditions: 5 mM KCN, 200 μM elastase inhibitor, 3 h.
Data set [2] concerns PC-12 cells. Nature of the data set: KCN-induced necrosis in PC-12 cells, morphological quantification. It counts as cell-based, rat. The protocol:
The rat pheochromocytoma PC-12 cell line was propagated in DMEM medium (Gibco, BRL), supplemented with 5% heat-inactivated calf serum, 10% heat-inactivated horse serum, and 2 mM L-glutamine. PC-12 cells in logarithmic phase were seeded at a concentration of 1.2×10^5/well in 24-well plates (Cellstar). Then the cells were washed twice and maintained in glucose-free RPMI-1640 medium (Beit Haemek, Israel), and supplemented with 2 mM pyruvate and 10% dialyzed FCS for one hour. […] Alternatively, cells were treated with or without 100 ng/ml anti-Fas (Upstate biotechnology, USA) for the same time period. U-937 and PC-12 cells cultured in complete RPMI-1640 medium were washed and seeded in glucose-free RPMI-1640 medium, as described above, and treated with or without 0.5 mM KCN (Merck, Germany) for seven hours with U-937 cells, or for five hours with PC-12 cells. […] Cells undergoing morphological changes associated with apoptotic or necrotic cell death were monitored as described by McGahon et al. [Methods Cell Biol, 46: p. […] The pellet was resuspended in a 20-fold dilution of the dye mixture (composed of 100 μg/ml acridine orange and 100 μg/ml ethidium bromide in PBS), placed on a glass slide and viewed on an inverted fluorescence microscope. A minimum of 200 cells was scored for each sample.

Data set [3] has as its system U-937 cells. Nature of the data set: STS plus oligomycin-induced cell killing in U-937 cells, trypan blue exclusion. In kind it is cell-based, Human. The procedure: (§1) Human promonocytic U-937 cells in logarithmic phase were seeded at a concentration of 4×10^5/ml. Afterwards the cells were washed twice and seeded again in glucose-free RPMI-1640 medium (Beit Haemek, Israel) supplemented with 2 mM pyruvate (Beit Haemek, Israel) and 10% dialyzed FCS (Gibco, BRL) for one hour.
(§2) The rat pheochromocytoma PC-12 cell line was propagated in DMEM medium (Gibco, BRL), supplemented with 5% heat-inactivated calf serum, 10% heat-inactivated horse serum, and 2 mM L-glutamine. […]. Then the cells were washed twice and maintained in glucose-free RPMI-1640 medium (Beit Haemek, Israel), and supplemented with 2 mM pyruvate and 10% dialyzed FCS for one hour. U-937 and PC-12 cells were incubated with and without 1 μM oligomycin (Sigma) for 45 min, and cells were treated with or without 1.25 μM staurosporine (STS) (Sigma) for an additional seven hours in U-937 cells or five hours in PC-12 cells. Alternatively, cells were treated with or without 100 ng/ml anti-Fas (Upstate biotechnology, USA) for the same time period.
200 μM elastase inhibitor III (MeOSuc-Ala-Ala-Pro-Val-CMK from Calbiochem) when added was administered 30 min before addition of the inducers. […]
At each time point, cell viability was determined by the trypan blue exclusion method (Daniel C P, Parreira A., et al. Leukemia Res. 11:191-196 (1987). Assays were performed in duplicate.

Data set [4] deals with U-937 cells. Nature of the data set: Anti-Fas-induced apoptosis/necrosis in U-937 cells, morphological quantification (acridine orange/ethidium bromide). In kind it is cell-based, Human. The settings on record: for effect on anti-Fas-induced apoptotic and necrotic cell death: anti-Fas with or without oligomycin, inhibitor added. The protocol:
as §1, §2
(§3) 200 μM elastase inhibitor III (MeOSuc-Ala-Ala-Pro-Val-CMK from Calbiochem) when added was administered 30 min before addition of the inducers. The inhibitor was dissolved in DMSO to a concentration of 100 mM. The final concentration of DMSO in the system was 0.2%, and was added to all treatments. In separate experiments, 200 μM of an elastase inhibitor (CE1037, manufactured by Cortech Inc.) was administered 30 min before addition of the inducers. The inhibitor was dissolved in PBS.
(§4) Cells undergoing morphological changes associated with apoptotic or necrotic cell death were monitored as described by McGahon et al. [Methods Cell Biol, 46: p. 153-85 (1995)]. Briefly, 1 ml of the cells was collected and centrifuged. The pellet was resuspended in a 20-fold dilution of the dye mixture (composed of 100 μg/ml acridine orange and 100 μg/ml ethidium bromide in PBS), placed on a glass slide and viewed on an inverted fluorescence microscope. A minimum of 200 cells was scored for each sample.

Data set [5] concerns PC-12 cells. Nature of the data set: STS plus oligomycin-induced necrosis in PC-12 cells, morphological quantification. In kind it is cell-based, rat. The protocol: as §2
[…] The inhibitor was dissolved in DMSO to a concentration of 100 mM. The final concentration of DMSO in the system was 0.2%, and was added to all treatments. In separate experiments, 200 μM of an elastase inhibitor (CE1037, manufactured by Cortech Inc.) was administered 30 min before addition of the inducers. The inhibitor was dissolved in PBS.
as §4

In data set [6] the test system is PC-12 cells. Nature of the data set: STS-induced apoptosis in PC-12 cells, morphological quantification. In kind it is cell-based, rat. The protocol: as §2, §3, §4
Data set [7] has as its system elastase-like activity. Nature of the data set: Gelatin substrate gel electrophoresis of U-937 cell lysates, gel incubated with protease inhibitors. Conditions: 100 μM inhibitor in gel incubation. It counts as biochemical, Human.
In data set [8] the test system is U-937 cells. Conditions: elastase inhibitor III without KCN.
[9] abbreviates: 1.25 μM STS with 1 μM oligomycin, 100 μM elastase inhibitor.
Where [10] appears, read: lysate of U-937 cells treated with 0.5 mM KCN for 3 h.
The mark [11] stands for this setting: lysate of U-937 cells treated with anti-Fas and oligomycin for 3 h.

Residues, ends and D or L forms follow the SMILES beside them. *: point of attachment. MeOSuc = COC(=O)CCC(=O)*; CH2Cl = ClC*

Regarding `CC(C)(CS(=O)(=O)c1ccc(OC(=O)C(C)(C)c2ccc(C(C)(C)C(=O)Oc3ccc(S(=O)(=O)CC(C)(C)C(=O)O)cc3)cc2)cc1)C(=O)O` [CE1037], the “band of protease activity when KCN administered with inhibitor” value in data set [1] is “disappeared”. Also, the “effect of inhibitor by itself” value in data set [2] (200 μM inhibitor without KCN), in data set [5] (200 μM elastase inhibitor alone) and in data set [6] (200 μM elastase inhibitor without STS) was “inactive by itself” throughout. Moreover, the “effect on necrosis induced by KCN” value in data set [2] (0.5 mM KCN, 200 μM inhibitor) was “significantly inhibited necrosis”. The “effect of inhibitor by itself on cell survival” value in data set [3] (48 hours, inhibitor alone) is “slight effect by itself”. In addition, in data set [3] (prolonged incubation of 48 hours), the “effect on cell killing induced by STS and oligomycin (cell viability, trypan blue)” value is reported as “significantly inhibited cell killing”. In data set [4], the “effect on anti-Fas-induced apoptotic and necrotic cell death” value was “completely abrogated apoptotic as well as necrotic cell death”. Further, the necrotic cell death in data set [5] (setting [9]) was 9%. The “necrotic cell death shifted to apoptotic cell death” value in data set [5] (setting [9]) is listed as 39%. Also, the “effect on necrosis induced by STS” value in data set [5] (1.25 μM STS with 1 μM oligomycin, 200 μM elastase inhibitor) is “completely abrogated necrosis”. Further, the “effect on apoptosis induced by STS” value in data set [6] (1.25 μM STS, 200 μM elastase inhibitor) was “significantly inhibited apoptosis”.
Consider `CC[C@H]1/C=C/C=C/C[C@@H](C)[C@H](O)[C@@](C)(O)C(=O)[C@@H](C)[C@H](O)[C@@H](C)C(=O)[C@@H](C)[C@H](O)[C@@H](C)/C=C/C(=O)O[C@@H]2[C@H](C)[C@H](CC1)O[C@]1(CC[C@H](C)[C@H](C[C@@H](C)O)O1)[C@H]2C` [Oligomycin, oligomycin], for which the “effect of oligomycin by itself on cell death” value in data set [4] (1 μM oligomycin alone) and in data set [5] (oligomycin alone) was “inactive by itself” each time.
On to `CN[C@@H]1C[C@H]2O[C@@](C)([C@@H]1OC)n1c3ccccc3c3c4c(c5c6ccccc6n2c5c31)C(=O)NC4` [STS, staurosporine], for which the necrosis entry in data set [5] (1.25 μM STS with 1 μM oligomycin) is recorded as “about 70%”. Also, the apoptosis entry in data set [6] (1.25 μM STS alone, compared to control) was “about 73%”.
Consider `Cc1ccc(S(=O)(=O)N[C@@H](Cc2ccccc2)C(=O)CCl)cc1` [TPCK], for which the “band of protease activity in presence of inhibitor” value in data set [7] (setting [10]) and in data set [7] (setting [11]) was “not” each time.
Turning to `COC(=O)CCC(=O)N[C@@H](C)C(=O)N[C@@H](C)C(=O)N1CCC[C@H]1C(=O)N[C@H](C(=O)CCl)C(C)C` [elastase inhibitor III, MeOSuc-Ala-Ala-Pro-Val-CMK] (MeOSuc-AAPV-CH2Cl), the “cell damage by inhibitor alone” value in data set [8] is “did not cause any cell damage”.
`CC(C)C[C@H](NC(=O)N[C@H](C(=O)N[C@@H](CCC(N)=O)C(=O)N[C@@H](C)C=O)[C@@H]1CCNC(=N)N1)C(=O)O` [elastinal]: the “effect on anti-Fas-induced apoptotic and necrotic cell death” value in data set [4] is “had no effect”. The “band of protease activity in presence of inhibitor” value in data set [7] (setting [10]) and in data set [7] (setting [11]) was “disappeared” in each case.

The values above are taken from patent US20120289452A1, “COMPOSITIONS AND METHODS FOR TREATING AND PREVENTING NECROSIS” (Ilana Nathan, priority 2002, published 2012).
